Patent US20220354818A1, “METHODS FOR TREATING BRAIN INJURY OR COGNITIVE DYSFUNCTION BY PHARMACOLOGICAL ENHANCMENT OF M-TYPE POTASSIUM ION CURRENTS IN NEURONS” (Advanced Neuroresearch Therapeutics LLC, priority 2019, published 2022)

Tested on: mice subjected to rbTBI
Assay: Sleep-wake cycle analysis of EEG after rbTBI
Format: in vivo, mouse
Conditions: first week post-rbTBI
Experimental: To study the sleep-wake cycle, video/EEG records from the first 72 hour long record session (starting 2 days after the last injury) and the last 48 hour long record session (9 months after the last injury) were analyzed. To select one EEG channel from each animal/session for further analysis, we performed visual inspections of the raw local field potentials and their time-frequency decompositions (spectrograms) recorded from the three electrodes. EEG channels with signal saturation and background noise or artifacts were discarded. Then, the EEG channel with the highest percentage power at the 5-12 Hz frequency band was used to classify the sleep-wake cycle. Awake state (WK), slow wave sleep (SWS), rapid eye movement sleep REM), and transition/undetermined states (US) were classified based on two power spectral ratios, as described by Gervasoni et al., Global Forebrain Dynamics Predict Rat Behavioral States and Their Transitions, J Neurosci 24(49): 11137-11147 (2004). In brief, it first measures the relative power within fast (0.5-20/0.5-50 Hz) and slow (0.5-4.5/0.5-9 Hz) frequency bands and then generates a 2 dimensional (2D) state-space on which clusters are manually selected and associated with each state of the sleep-wake cycle.

CCOC(=O)Nc1ccc(NCc2ccc(F)cc2)cc1N [RTG, 2-amino-4-(4-fluorobenzylamino)-1-ethoxycarbonylaminobenzene]
percentage of time in awake state: roughly equivalent to that experienced by the Sham group
